Experimental data: the supplement of paper PMC10307832

How the values were obtained:
Assay in all cases: relative viability (nuclei count vs DMSO), 5 days (fraction); higher = more cells survive
NCI-H358 = tested on: NCI-H358
In short: (§1)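 Lung cancer cell lines were seeded in 1536-well plates and dosed by pin tool the next day, with either a single drug or a fixed anchor-drug dose combined with five library-drug doses (not always all listed) spaced in √10 steps. Five days later, one step fixed the cells and stained their nuclei (final 0.05% Triton X-100, 1% formaldehyde, 1 ug/ml Hoechst), and nuclei were counted on 4× images. Relative viability is the nuclei count in treated wells divided by the count in vehicle wells, and each value is the median of duplicate plates.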

NCI-H441 = tested on: NCI-H441
In short: as §1

NCI-H460 = tested on: NCI-H460
In short: as §1

NCI-H520 = tested on: NCI-H520
In short: as §1

NCI-H522 = tested on: NCI-H522
In short: as §1

NCI-H596 = tested on: NCI-H596
In short: as §1

NCI-H647 = tested on: NCI-H647
In short: as §1

NCI-H661 = tested on: NCI-H661
In short: as §1

NCI-H727 = tested on: NCI-H727
In short: as §1

NCI-H838 = tested on: NCI-H838
In short: as §1

PC-3 [JPC-3] = tested on: PC-3 [JPC-3]
In short: as §1

SK-LU-1 = tested on: SK-LU-1
In short: as §1

SMILES: Cc1cn(-c2cc(NC(=O)c3ccc(C)c(Nc4nccc(-c5cccnc5)n4)c3)cc(C(F)(F)F)c2)cn1 [Nilotinib] + CC(=O)Nc1cccc(-n2c(=O)n(C3CC3)c(=O)c3c(Nc4ccc(I)cc4F)n(C)c(=O)c(C)c32)c1 [Trametinib] (partner 0.02 µM)
- relative viability (NCI-H358; first compound 0.003162 µM): 0.143
- relative viability (NCI-H358; first compound 0.01 µM): 0.13
- relative viability (NCI-H358; first compound 0.03162 µM): 0.116
- relative viability (NCI-H358; first compound 0.1 µM): 0.128
- relative viability (NCI-H441; first compound 0.001 µM): 0.437
- relative viability (NCI-H441; first compound 0.003162 µM): 0.569
- relative viability (NCI-H441; first compound 0.01 µM): 0.468
- relative viability (NCI-H441; first compound 0.03162 µM): 0.299
- relative viability (NCI-H441; first compound 0.1 µM): 0.37
- relative viability (NCI-H460; first compound 0.003162 µM): 0.127
- relative viability (NCI-H460; first compound 0.01 µM): 0.0752
- relative viability (NCI-H460; first compound 0.03162 µM): 0.108
- relative viability (NCI-H460; first compound 0.1 µM): 0.0424
- relative viability (NCI-H520; first compound 0.001 µM): 0.612
- relative viability (NCI-H520; first compound 0.003162 µM): 0.747
- relative viability (NCI-H520; first compound 0.01 µM): 0.738
- relative viability (NCI-H520; first compound 0.03162 µM): 0.392
- relative viability (NCI-H520; first compound 0.1 µM): 0.39
- relative viability (NCI-H522; first compound 0.01 µM): 0.627
- relative viability (NCI-H522; first compound 0.03162 µM): 0.671
- relative viability (NCI-H522; first compound 0.1 µM): 0.596
- relative viability (NCI-H596; first compound 0.001 µM): 0.67
- relative viability (NCI-H596; first compound 0.003162 µM): 0.883
- relative viability (NCI-H596; first compound 0.01 µM): 0.905
- relative viability (NCI-H596; first compound 0.03162 µM): 0.668
- relative viability (NCI-H596; first compound 0.1 µM): 0.712
- relative viability (NCI-H647; first compound 0.001 µM): 0.363
- relative viability (NCI-H647; first compound 0.003162 µM): 0.614
- relative viability (NCI-H647; first compound 0.01 µM): 0.352
- relative viability (NCI-H647; first compound 0.03162 µM): 0.18
- relative viability (NCI-H647; first compound 0.1 µM): 0.254
- relative viability (NCI-H661; first compound 0.001 µM): 0.49
- relative viability (NCI-H661; first compound 0.003162 µM): 0.593
- relative viability (NCI-H661; first compound 0.01 µM): 0.606
- relative viability (NCI-H661; first compound 0.03162 µM): 0.407
- relative viability (NCI-H661; first compound 0.1 µM): 0.367
- relative viability (NCI-H727; first compound 0.001 µM): 0.405
- relative viability (NCI-H727; first compound 0.003162 µM): 0.388
- relative viability (NCI-H727; first compound 0.01 µM): 0.355
- relative viability (NCI-H727; first compound 0.03162 µM): 0.368
- relative viability (NCI-H727; first compound 0.1 µM): 0.345
- relative viability (NCI-H838; first compound 0.001 µM): 0.462
- relative viability (NCI-H838; first compound 0.003162 µM): 0.617
- relative viability (NCI-H838; first compound 0.01 µM): 0.567
- relative viability (NCI-H838; first compound 0.03162 µM): 0.339
- relative viability (NCI-H838; first compound 0.1 µM): 0.494
- relative viability (PC-3 [JPC-3]; first compound 0.001 µM): 0.847
- relative viability (PC-3 [JPC-3]; first compound 0.01 µM): 0.7
- relative viability (PC-3 [JPC-3]; first compound 0.03162 µM): 0.523
- relative viability (PC-3 [JPC-3]; first compound 0.1 µM): 0.591
- relative viability (SK-LU-1; first compound 0.001 µM): 0.436
- relative viability (SK-LU-1; first compound 0.003162 µM): 0.475
- relative viability (SK-LU-1; first compound 0.01 µM): 0.371
- relative viability (SK-LU-1; first compound 0.03162 µM): 0.361
- relative viability (SK-LU-1; first compound 0.1 µM): 0.385
